Test results: patent publication US8859583B2, “Bicyclic heterocyclic compounds as protein tyrosine kinase inhibitors” (Astex Therapeutics Limited, priority 2007, dated 2014)
Structures can show the parent of a compound that is named as a salt.

Experiments:
[1] = system: Ba/F3-TEL-FGFR3 cell line; test: Ba/F3-TEL-FGFR3 cell proliferation assay; format: cell-based; conditions: 72 hours, Alamar Blue; read-out: IC50 against Ba/F3-TEL-FGFR3 cell line
Experimental: Ba/F3-TEL-FGFR3 & Ba/F3 (WT) Cell Proliferation Assays
Stably transfected Ba/F3-TEL-FGFR3 cells were plated out into black 96-well tissue culture plates with clear bottoms in RPMI medium containing 10% FBS and 0.25 mg/ml G418 at a density of 5×10^3 cells/well (200 μl per well). The parental wild-type Ba/F3 cells (DSMZ no.: ACC 300) were plated out into black 96-well tissue culture plates with clear bottoms in RPMI medium containing 10% FBS and 2 ng/ml mouse IL-3 (R&D Systems) at a density of 2.5×10^3 cells/well (200 μl per well). Plates were placed in an incubator overnight before adding the compounds the following day. Dilutions of compounds were made in DMSO starting at 10 mM and were diluted into the wells to give a final DMSO concentration of 0.1% in assay. Compounds were left on the cells for 72 hours before the plates were removed from the incubator and 20 μl of Alamar Blue™ (Biosource) was added to each well. Plates were placed in the incubator for 4-6 hours before reading plates at 535 nm (excitation)/590 nm (emission) on a Fusion plate reader (Packard).
In particular, compounds of the invention were tested against the Ba/F3-TEL-FGFR3 cell line.

[2] = system: LP-1 cell line (DSMZ no.: ACC 41) derived from human multiple myeloma; test: Cell-based pERK ELISA in LP-1 cells; conditions: LP-1, FGF-1/Heparin stimulated, for the 1 μM bound: or at least 50% inhibition at a concentration of 1 μM
Experimental: Enzyme buffer A: 8 mM MOPS, pH 7.0, 0.2 mM EDTA, 10 mM MgAcetate Enzyme buffer B: 8 mM MOPS, pH 7.0, 0.2 mM EDTA, 2.5 mM MnCl2, 10 mM MgAcetate Enzyme buffer C: 8 mM Mops, pH 7.0, 0.2 mM EDTA, 10 mM MnCl2, 10 mM MgAcetate. Cell-Based pERK ELISA Method
LP-1 or JIM-1 multiple myeloma cells were seeded in 96 well plates at 1×10^6 cells/ml in 200 ul per well in serum free media. HUVEC cells were seeded at 2.5×10^5 cells/ml and allowed to recover for 24 h prior to transfer to serum free media. Cells were incubated for 16 h at 37° C. prior to the addition of a test compound for 30 minutes. Test compounds were administered at a 0.1% final DMSO concentration. Following this 30 minute incubation a FGF-1/Heparin (FGF-1 at 100 ng/ml final and Heparin at 100 ug/ml) mixture or VEGF^165 (100 ug/ml) was added to each of the wells for a further 5 minutes. The media was removed and 50 ul ERK ELISA lysis buffer (R and D Systems DuoSet ELISA for pERK and Total ERK #DYC-1940E, DYC-1018E) added. ELISA plates and standards were prepared according to the standard DuoSet protocols and the relative amounts of pERK to total ERK in each sample calculated according to the standard curve.
In particular, compounds of the invention were tested against the LP-1 cell line (DSMZ no.: ACC 41) derived from human multiple myeloma.

Row | Compound | IC50 [2] [µM] | melting point [°C] | also measured
1 | CN(C)C(=O)c1ccn2c(-c3cccc(NC(=O)NCC(F)(F)F)c3)cnc2c1 [Example 1, 3-[3-[3-(2,2,2-Trifluoroethyl)ureido]-phenyl}imidazo[1,2-a]pyridine-7-carboxylic acid dimethylamide Hydrochloride] |  |  | IC50 [1]: < 20 µM
2 | CNC(=O)c1ccn2c(-c3cccc(NC(=O)NCC(F)(F)F)c3)cnc2c1 [Example 2, 3-[3-[3-(2,2,2-Trifluoroethyl)ureido]-phenyl}imidazo[1,2-a]pyridine-7-carboxylic acid methylamide] | < 20 |  | 
3 | O=C(NCC(F)(F)F)Nc1cccc(-c2cnc3cc(C(=O)N4CCC(O)C4)ccn23)c1 (stereo not shown) [Example 7, 1-{3-[7-(3-Hydroxy-pyrrolidine-1-carbonyl)-imidazo[1,2-a]pyridin-3-yl]-phenyl}-3-(2,2,2-trifluoro-ethyl)-urea] | < 20 |  | 
4 | CC(CO)NC(=O)c1ccn2c(-c3cccc(NC(=O)NCC(F)(F)F)c3)cnc2c1 (stereo not shown) [Example 17, 3-{3-[3-(2,2,2-Trifluoro-ethyl)-ureido]-phenyl}-imidazo[1,2-a]pyridine-7-carboxylic acid (2-hydroxy-1-methyl-ethyl)-amide] | < 20 |  | 
5 | Cn1cncc1NC(=O)c1ccn2c(-c3cccc(NC(=O)NCC(F)(F)F)c3)cnc2c1 [Example 18, 3-{3-[2,2,2-Trifluoro-ethyl)-ureido]-imidazo[1,2-a]pyridine-7-[5-(1-N-methyl-imidazole)]-amide] |  | 260 | 
6 | O=C(NCC(F)(F)F)Nc1cccc(-c2cnc3cc(C(=O)NCCCc4cnc[nH]4)ccn23)c1 [Example 19, 3-{3-[2,2,2-Trifluoro-ethyl)-ureido]-imidazo[1,2-a]pyridine-7-[3-(1H-imidazol-4-yl)]-propanamide] |  | 170 | 
7 | Cn1cncc1CNC(=O)c1ccn2c(-c3cccc(NC(=O)NCC(F)(F)F)c3)cnc2c1 [Example 20, 3-{3-[2,2,2-Trifluoro-ethyl)-ureido]-imidazo[1,2-a]pyridine-7-[5-(1-N-methyl-imidazole)]-methylamide] |  | > 260 | 
